# Assays:
# [1] = tested on: Cyperus serotinus, Rottb.; assay: Preemergence weed control under flooded paddy conditions, CYPSE (Flatsedge); type: in vivo; conditions: for CYPSE: herbicidal effect rating 0-9, three to four weeks after treatment; for herbicidal effect rating, CYPSE / CYPSE herbicidal rating: rated three to four weeks after treatment; as to herbicidal effect rating, CYPSE: meaning of each grade not given here
# [2] = tested on: Monochoria vaginalis, Presl.; assay: Preemergence weed control under flooded paddy conditions, MOOVA (Monochoria); type: in vivo; conditions: flooded paddy; for MOOVA: herbicidal effect rating 0-9, three to four weeks after treatment; for herbicidal effect rating, MOOVA / MOOVA herbicidal rating: rated three to four weeks after treatment; as to herbicidal effect rating, MOOVA: meaning of each grade not given here
# [3] = tested on: Echinochloa oryzoides (Ard.) Fritsch.; assay: Preemergence weed control under flooded paddy conditions, ECHORC (Watergrass (Calif.)); type: in vivo; conditions: flooded paddy; for ECHORC: herbicidal effect rating 0-9, three to four weeks after treatment; for herbicidal effect rating, ECHORC / ECHORC herbicidal rating: rated three to four weeks after treatment; as to herbicidal effect rating, ECHORC: meaning of each grade not given here
# [4] = tested on: Sagittaria pygmaea, L.; assay: Preemergence weed control under flooded paddy conditions, SAGPY (Arrowhead (Pygmaea)); type: in vivo; conditions: flooded paddy; for SAGPY: herbicidal effect rating 0-9, three to four weeks after treatment; for herbicidal effect rating, SAGPY / SAGPY herbicidal rating: rated three to four weeks after treatment; as to herbicidal effect rating, SAGPY: meaning of each grade not given here
# [5] = tested on: Oryza sativa, (L.) Tebonnet; assay: Rice tolerance to post-transplant applications under flooded paddy conditions (Example 187), ORYSAT (Rice, Tebonnet); conditions: for ORYSAT: herbicidal effect rating 0-9, three to four weeks after treatment; for herbicidal effect rating ORYSAT / ORYSAT herbicidal rating (rice tolerance): rated three to four weeks after treatment
# [6] = tested on: Cyperus iria; assay: Preemergence weed control under flooded paddy conditions, CYPIR (Rice Flatsedge); type: in vivo; conditions: flooded paddy; for CYPIR: herbicidal effect rating 0-9, three to four weeks after treatment; for herbicidal effect rating, CYPIR / CYPIR herbicidal rating: rated three to four weeks after treatment; as to herbicidal effect rating, CYPIR: meaning of each grade not given here
# [7] = 0.0320 kg/ha, preemergence weeds
# [8] = 0.0620 kg/ha, preemergence weeds
# [9] = 0.1250 kg/ha, preemergence weeds
# [10] = 0.2500 kg/ha, preemergence weeds
# [11] = Rate 0.0320 kg/ha, preemergence
# [12] = Rate 0.0620 kg/ha, preemergence
# [13] = Rate 0.1250 kg/ha, preemergence
# [14] = Rate 0.2500 kg/ha, preemergence
# [15] = Rate 0.0320 kg/ha, preemergence weeds
# [16] = Rate 0.0620 kg/ha, preemergence weeds
# [17] = Rate 0.1250 kg/ha, preemergence weeds
# [18] = Rate 0.2500 kg/ha, preemergence weeds
smiles,measurement,setting,value
"Cc1ccc(OCC(=O)NS(C)(=O)=O)c(-c2noc3cc(F)c(-n4c(=O)cc(C(F)(F)F)n(C)c4=O)cc23)c1 [Example 428, Acetamide, 2-{{2-{5-[3,6-dihydro-3-methyl-2,6-dioxo-4-(trifluoromethyl)-1(2H)-pyrimidinyl]-6-fluoro-1,2-benzisoxazol-3-yl}-p-tolyl}oxy}-N-(methylsulfonyl)-]",CYPSE,[1]; [7],0.0
same,CYPSE,[1]; [8],0.0
same,MOOVA,[2]; [7],9.0
same,MOOVA,[2]; [8],9.0
same,MOOVA,[2]; [9],9.0
same,MOOVA,[2]; [10],9.0
same,ECHORC,[3]; [7],2.0
same,ECHORC,[3]; [8],3.0
same,ECHORC,[3]; [9],6.0
same,ECHORC,[3]; [10],9.0
same,SAGPY,[4]; [7],0.0
same,SAGPY,[4]; [8],0.0
same,SAGPY,[4]; [9],2.0
same,SAGPY,[4]; [10],6.0
same,ORYSAT,[5]; 0.0320 kg/ha,0.0
same,ORYSAT,[5]; 0.0620 kg/ha,2.0
same,ORYSAT,[5]; 0.1250 kg/ha,6.0
same,ORYSAT,[5]; 0.2500 kg/ha,6.0
same,CYPIR,[6]; [7],0.0
same,CYPIR,[6]; [8],2.0
same,CYPIR,[6]; [9],4.0
same,CYPIR,[6]; [10],7.0
"CCCCS(=O)(=O)NC(=O)C(C)Oc1ccc(C)cc1-c1nsc2ccc(-n3c(=O)cc(C(F)(F)F)n(C)c3=O)cc12 (stereo not shown) [Example 575, Propionamide, N-(butylsulfonyl)-2-{{2-{5-[3,6-dihydro-3-methyl-2,6-dioxo-4-(trifluoromethyl)-1(2H)-pyrimidinyl]-1,2-benzisothiazol-3-yl}-p-tolyl}oxy}-]","herbicidal effect rating, CYPSE",[1]; [11],0.0
same,"herbicidal effect rating, CYPSE",[1]; [12],0.0
same,"herbicidal effect rating, CYPSE",[1]; [13],0.0
same,"herbicidal effect rating, CYPSE",[1]; [14],2.0
same,"herbicidal effect rating, MOOVA",[2]; [11],4.0
same,"herbicidal effect rating, MOOVA",[2]; [12],4.0
same,"herbicidal effect rating, MOOVA",[2]; [13],9.0
same,"herbicidal effect rating, MOOVA",[2]; [14],9.0
same,"herbicidal effect rating, ECHORC",[3]; [11],2.0
same,"herbicidal effect rating, ECHORC",[3]; [12],5.0
same,"herbicidal effect rating, ECHORC",[3]; [13],6.0
same,"herbicidal effect rating, ECHORC",[3]; [14],9.0
same,"herbicidal effect rating, SAGPY",[4]; [11],0.0
same,"herbicidal effect rating, SAGPY",[4]; [12],0.0
same,"herbicidal effect rating, SAGPY",[4]; [13],0.0
same,"herbicidal effect rating, SAGPY",[4]; [14],3.0
same,herbicidal effect rating ORYSAT,[5]; Rate 0.0320 kg/ha,0.0
same,herbicidal effect rating ORYSAT,[5]; Rate 0.0620 kg/ha,0.0
same,herbicidal effect rating ORYSAT,[5]; Rate 0.1250 kg/ha,0.0
same,herbicidal effect rating ORYSAT,[5]; Rate 0.2500 kg/ha,2.0
same,"herbicidal effect rating, CYPIR",[6]; [11],0.0
same,"herbicidal effect rating, CYPIR",[6]; [12],0.0
same,"herbicidal effect rating, CYPIR",[6]; [13],4.0
same,"herbicidal effect rating, CYPIR",[6]; [14],6.0
"Cn1c(C(F)(F)F)cc(=O)n(-c2ccc3snc(C(C#N)=Cc4cc5ccccc5[nH]4)c3c2)c1=O [Example 601, 1,2-Benzisothiazole-3-acetonitrile, 5-[3,6-dihydro-3-methyl-2,6-dioxo-4-(trifluoromethyl)-1(2H)-pyrimidinyl]-alpha-(indol-2-ylmethylene)-]","herbicidal effect rating, CYPSE",[1]; [11],0.0
same,"herbicidal effect rating, CYPSE",[1]; [12],0.0
same,"herbicidal effect rating, CYPSE",[1]; [13],0.0
same,"herbicidal effect rating, CYPSE",[1]; [14],3.0
same,"herbicidal effect rating, MOOVA",[2]; [11],6.0
same,"herbicidal effect rating, MOOVA",[2]; [12],7.0
same,"herbicidal effect rating, MOOVA",[2]; [13],9.0
same,"herbicidal effect rating, MOOVA",[2]; [14],9.0
same,"herbicidal effect rating, ECHORC",[3]; [11],0.0
same,"herbicidal effect rating, ECHORC",[3]; [12],0.0
same,"herbicidal effect rating, ECHORC",[3]; [13],2.0
same,"herbicidal effect rating, ECHORC",[3]; [14],6.0
same,"herbicidal effect rating, SAGPY",[4]; [11],0.0
same,"herbicidal effect rating, SAGPY",[4]; [12],0.0
same,"herbicidal effect rating, SAGPY",[4]; [13],0.0
same,"herbicidal effect rating, SAGPY",[4]; [14],0.0
same,herbicidal effect rating ORYSAT,[5]; Rate 0.0320 kg/ha,4.0
same,herbicidal effect rating ORYSAT,[5]; Rate 0.0620 kg/ha,5.0
same,herbicidal effect rating ORYSAT,[5]; Rate 0.1250 kg/ha,6.0
same,herbicidal effect rating ORYSAT,[5]; Rate 0.2500 kg/ha,7.0
same,"herbicidal effect rating, CYPIR",[6]; [11],0.0
same,"herbicidal effect rating, CYPIR",[6]; [12],0.0
same,"herbicidal effect rating, CYPIR",[6]; [13],4.0
same,"herbicidal effect rating, CYPIR",[6]; [14],4.0
"CC(C)OC(=O)C(C)(C)c1nsc2ccc(-n3c(=O)cc(C(F)(F)F)n(C)c3=O)cc12 [Example 489, 1,2-Benzisothiazole-3-acetic acid, 5-[3,6-dihydro-3-methyl-2,6-dioxo-4-(trifluoromethyl)-1(2H)-pyrimidinyl]-alpha,alpha-dimethyl-, isopropyl ester]",CYPSE herbicidal rating,"[1]; 0.0320 kg/ha, preemergence",6.0
same,CYPSE herbicidal rating,"[1]; 0.0620 kg/ha, preemergence",7.0
same,CYPSE herbicidal rating,"[1]; 0.1250 kg/ha, preemergence",9.0
same,CYPSE herbicidal rating,"[1]; 0.2500 kg/ha, preemergence",9.0
same,MOOVA herbicidal rating,"[2]; 0.0320 kg/ha, preemergence",9.0
same,MOOVA herbicidal rating,"[2]; 0.0620 kg/ha, preemergence",9.0
same,MOOVA herbicidal rating,"[2]; 0.1250 kg/ha, preemergence",9.0
same,MOOVA herbicidal rating,"[2]; 0.2500 kg/ha, preemergence",9.0
same,ECHORC herbicidal rating,"[3]; 0.0320 kg/ha, preemergence",7.0
same,ECHORC herbicidal rating,"[3]; 0.0620 kg/ha, preemergence",7.0
same,ECHORC herbicidal rating,"[3]; 0.1250 kg/ha, preemergence",9.0
same,ECHORC herbicidal rating,"[3]; 0.2500 kg/ha, preemergence",9.0
same,SAGPY herbicidal rating,"[4]; 0.0320 kg/ha, preemergence",6.0
same,SAGPY herbicidal rating,"[4]; 0.0620 kg/ha, preemergence",9.0
same,SAGPY herbicidal rating,"[4]; 0.1250 kg/ha, preemergence",9.0
same,SAGPY herbicidal rating,"[4]; 0.2500 kg/ha, preemergence",9.0
same,ORYSAT herbicidal rating (rice tolerance),[5]; 0.0320 kg/ha,5.0
same,ORYSAT herbicidal rating (rice tolerance),[5]; 0.0620 kg/ha,6.0
same,ORYSAT herbicidal rating (rice tolerance),[5]; 0.1250 kg/ha,6.0
same,ORYSAT herbicidal rating (rice tolerance),[5]; 0.2500 kg/ha,6.0
same,CYPIR herbicidal rating,"[6]; 0.0320 kg/ha, preemergence",6.0
same,CYPIR herbicidal rating,"[6]; 0.0620 kg/ha, preemergence",9.0
same,CYPIR herbicidal rating,"[6]; 0.1250 kg/ha, preemergence",9.0
same,CYPIR herbicidal rating,"[6]; 0.2500 kg/ha, preemergence",9.0
"Cn1c(C(F)(F)F)cc(=O)n(-c2ccc3snc(C(=O)NS(=O)(=O)Cc4ccccc4)c3c2)c1=O [Example 341, 1,2-Benzisothiazole-3-carboxamide, N-(benzylsulfonyl)-5-[3,6-dihydro-3-methyl-2,6-dioxo-4-(trifluoromethyl)-1(2H)-pyrimidinyl]-]","herbicidal effect rating, CYPSE",[1]; [15],0.0
same,"herbicidal effect rating, CYPSE",[1]; [16],0.0
same,"herbicidal effect rating, CYPSE",[1]; [17],2.5
same,"herbicidal effect rating, CYPSE",[1]; [18],3.5
same,"herbicidal effect rating, MOOVA",[2]; [15],7.0
same,"herbicidal effect rating, MOOVA",[2]; [16],9.0
same,"herbicidal effect rating, MOOVA",[2]; [17],9.0
same,"herbicidal effect rating, MOOVA",[2]; [18],9.0
same,"herbicidal effect rating, ECHORC",[3]; [15],3.0
same,"herbicidal effect rating, ECHORC",[3]; [16],5.5
same,"herbicidal effect rating, ECHORC",[3]; [17],8.0
same,"herbicidal effect rating, ECHORC",[3]; [18],8.5
same,"herbicidal effect rating, SAGPY",[4]; [15],1.0
same,"herbicidal effect rating, SAGPY",[4]; [16],4.5
same,"herbicidal effect rating, SAGPY",[4]; [17],4.5
same,"herbicidal effect rating, SAGPY",[4]; [18],4.5
same,herbicidal effect rating ORYSAT,[5]; Rate 0.0320 kg/ha,1.5
same,herbicidal effect rating ORYSAT,[5]; Rate 0.0620 kg/ha,2.5
same,herbicidal effect rating ORYSAT,[5]; Rate 0.1250 kg/ha,3.0
same,herbicidal effect rating ORYSAT,[5]; Rate 0.2500 kg/ha,3.5
same,"herbicidal effect rating, CYPIR",[6]; [15],1.0
same,"herbicidal effect rating, CYPIR",[6]; [16],2.0
same,"herbicidal effect rating, CYPIR",[6]; [17],3.5
same,"herbicidal effect rating, CYPIR",[6]; [18],4.0
"COC(=O)c1nsc2ccc(-n3c(=O)cc(C(F)(F)F)n(C)c3=O)cc12 [Example 318, 1,2-Benzisothiazole-3-carboxylic acid, 5-[3,6-dihydro-3-methyl-2,6-dioxo-4-(trifluoromethyl)-1(2H)-pyrimidinyl]-, methyl ester]","herbicidal effect rating, CYPSE",[1]; [15],0.0
same,"herbicidal effect rating, CYPSE",[1]; [16],0.0
same,"herbicidal effect rating, CYPSE",[1]; [17],0.0
same,"herbicidal effect rating, CYPSE",[1]; [18],9.0
same,"herbicidal effect rating, MOOVA",[2]; [15],4.0
same,"herbicidal effect rating, MOOVA",[2]; [16],6.0
same,"herbicidal effect rating, MOOVA",[2]; [17],9.0
same,"herbicidal effect rating, MOOVA",[2]; [18],9.0
same,"herbicidal effect rating, ECHORC",[3]; [15],0.0
same,"herbicidal effect rating, ECHORC",[3]; [16],3.0
same,"herbicidal effect rating, ECHORC",[3]; [17],5.0
same,"herbicidal effect rating, ECHORC",[3]; [18],5.0
same,"herbicidal effect rating, SAGPY",[4]; [15],0.0
same,"herbicidal effect rating, SAGPY",[4]; [16],0.0
same,"herbicidal effect rating, SAGPY",[4]; [17],0.0
same,"herbicidal effect rating, SAGPY",[4]; [18],4.0
same,herbicidal effect rating ORYSAT,[5]; Rate 0.0320 kg/ha,5.0
same,herbicidal effect rating ORYSAT,[5]; Rate 0.0620 kg/ha,5.0
same,herbicidal effect rating ORYSAT,[5]; Rate 0.1250 kg/ha,5.0
same,herbicidal effect rating ORYSAT,[5]; Rate 0.2500 kg/ha,9.0
same,"herbicidal effect rating, CYPIR",[6]; [15],0.0
same,"herbicidal effect rating, CYPIR",[6]; [16],2.0
same,"herbicidal effect rating, CYPIR",[6]; [17],5.0
same,"herbicidal effect rating, CYPIR",[6]; [18],6.0

# Reference: EP0908457B1, “3-(1,2-benzisothiazol- and isoxazol-5-Y1)-2,4(1H,3H)-pyrimidinedione or thione and 3-(1,2-benzisothiazol- and isoxazol-5-y1)-4(3H)-pyrimidinone or thione herbicidal agents” (BASF AKTIENGESELLSCHAFT, priority 1997, dated 1999)
